The assay addresses T1, human glucocorticoid receptor (GR) complex (Homo sapiens, UniProt P04150).
T1 construct: made in house; host or cells: insect expression system (baculovirus lysate)
T1 sequence (P04150 1-777): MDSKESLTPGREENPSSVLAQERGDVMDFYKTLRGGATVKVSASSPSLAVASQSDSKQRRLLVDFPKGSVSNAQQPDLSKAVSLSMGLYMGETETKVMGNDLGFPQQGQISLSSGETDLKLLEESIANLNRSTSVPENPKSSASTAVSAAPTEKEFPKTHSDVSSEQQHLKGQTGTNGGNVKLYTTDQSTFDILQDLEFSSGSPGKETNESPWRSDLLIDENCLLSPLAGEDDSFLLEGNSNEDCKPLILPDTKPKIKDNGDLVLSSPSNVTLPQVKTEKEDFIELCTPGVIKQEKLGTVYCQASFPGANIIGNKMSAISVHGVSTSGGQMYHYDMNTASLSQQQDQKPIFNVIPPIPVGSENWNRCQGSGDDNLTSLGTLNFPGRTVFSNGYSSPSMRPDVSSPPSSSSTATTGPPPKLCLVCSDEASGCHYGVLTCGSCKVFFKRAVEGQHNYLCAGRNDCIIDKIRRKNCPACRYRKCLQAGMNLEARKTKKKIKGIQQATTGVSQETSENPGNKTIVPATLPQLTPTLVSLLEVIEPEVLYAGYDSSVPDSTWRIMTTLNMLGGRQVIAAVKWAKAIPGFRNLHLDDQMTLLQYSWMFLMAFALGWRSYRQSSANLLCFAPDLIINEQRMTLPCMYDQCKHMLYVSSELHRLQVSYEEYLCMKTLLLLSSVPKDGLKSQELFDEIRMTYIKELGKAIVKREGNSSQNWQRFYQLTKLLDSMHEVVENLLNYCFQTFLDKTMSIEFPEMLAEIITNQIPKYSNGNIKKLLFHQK
The assay is described as follows: Glucocorticoid Receptor Competitive Binding Assay (fluorescence polarization). To be noted: competition with TAMRA-labeled dexamethasone; potent activity. The protocol:
Compounds of the invention were evaluated for binding to the steroid receptor by a fluorescence polarization competitive binding assay. Detailed descriptions for preparation of recombinant glucocorticoid receptor (GR) complex used in the assay is described in U.S. Patent Application Publication No. US 2003/0017503, filed May 20, 2002, and incorporated herein by reference in its entirety. Preparation of the tetramethylrhodamine (TAMRA)-labeled dexamethasone probe was accomplished using a standard literature procedure (M. Pons et al., J. Steroid Biochem., 1985, 22, pp. 267-273).
This assay uses fluorescence polarization (FP) to quantitate the ability of test compounds to compete with tetramethylrhodamine (TAMRA)-labeled dexamethasone for binding to a human glucocorticoid receptor (GR) complex prepared from an insect expression system. The assay buffer was: 10 mM TES, 50 mM KCl, 20 mM Na2MoO4.2H2O, 1.5 mM EDTA, 0.04% w/v CHAPS, 10% v/v glycerol, 1 mM dithiothreitol, pH 7.4. Test compounds were dissolved to 1 mM in neat DMSO and then further diluted to 10× assay concentration in assay buffer supplemented with 10% v/v DMSO. Test compounds were serially diluted at 10× assay concentrations in 10% DMSO-containing buffer in 96-well polypropylene plates. Binding reaction mixtures were prepared in 96-well black Dynex microtiter plates by sequential addition of the following assay components to each well: 15 μL of 10× test compound solution, 85 μL of GR-containing baculovirus lysate diluted 1:170 in assay buffer, and 50 μL of 15 nM TAMRA-labeled dexamethasone. Positive controls were reaction mixtures containing no test compound; negative controls (blanks) were reaction mixtures containing 0.7 μM to 2 μM dexamethasone. The binding reactions were incubated for 1 hour at room temperature and then read for fluorescence polarization in the LJL Analyst set to 550 nm excitation and 580 nm emission, with the Rhodamine 561 dichroic mirror installed. IC50 values were determined by iterative non-linear curve fitting of the FP signal data to a 4-parameter logistic equation.
(In fluorescence polarisation assays a small probe gives low polarisation when free and higher when bound to something large.)

Molecules are shown by their SMILES. Bounds are passed on as bounds.

`Cc1cc(C)c(S(=O)(=O)N[C@@H](C)Cn2cc(CC#N)c3cc(F)ccc32)c(N)c1` [2-Amino-N—[(S)-2-(3-cyanomethyl-5-fluoroindol-1-yl)-1-methylethyl]-4,6-dimethylbenzenesulfonamide] had an IC50 not above 0.1 µM.

`CC[C@@H](Cn1cc(C)c2ccccc21)NS(=O)(=O)c1c(C)cc(C)cc1[N+](=O)[O-]` [2,4-Dimethyl-N—[(S)-1-(3-methylindol-1-ylmethyl)propyl]-6-nitrobenzenesulfonamide] yielded an IC50 not above 0.1 µM.

`Cc1cc(C)c(S(=O)(=O)N[C@H](Cn2cc(C)c3ccccc32)C(C)C)c(N)c1` [2-Amino-4,6-dimethyl-N—[(S)-2-methyl-1-(3-methylindol-1-ylmethyl)propyl]benzenesulfonamide] displayed a 50% inhibitory concentration (IC50) not above 0.1 µM.

`CC[C@@H](Cn1cc(C)c2ccccc21)NS(=O)(=O)c1c(C)cc(C)cc1C` [2,4,6-Trimethyl-N—[(S)-1-(3-methylindol-1-ylmethyl)propyl]benzenesulfonamide]: the IC50 is not above 0.1 µM.

In turn, `Cc1cc(C)c(S(=O)(=O)N[C@@H](C)Cn2cc(C#N)c3ccccc32)c(N)c1` [2-Amino-N—[(S)-2-(3-cyanoindol-1-yl)-1-methylethyl]-4,6-dimethylbenzenesulfonamide] registered a half-maximal inhibitory concentration (IC50) not above 0.1 µM.

The compound `Cc1cn(C[C@@H](NS(=O)(=O)c2c(N)cc(Cl)cc2Cl)C(C)C)c2ccccc12` [2-Amino-4,6-dichloro-N—[(S)-2-methyl-1-(3-methylindol-1-ylmethyl)propyl]benzenesulfonamide] displayed an IC50 not above 0.1 µM.

`Cc1cc(C)c(S(=O)(=O)NC(Cn2cc(C)c3ccccc32)C(C)C)c([N+](=O)[O-])c1` (centres unmarked) [2,4-Dimethyl-N-[2-methyl-1-(3-methylindol-1-ylmethyl)propyl]-6-nitrobenzenesulfonamide] showed a half-inhibitory concentration (IC50) not above 0.1 µM.

On to `CC[C@@H](Cn1cc(CC#N)c2ccccc21)NS(=O)(=O)c1c(C)cc(C)cc1N` [2-Amino-N—[(S)-1-(3-cyanomethylindol-1-ylmethyl)propyl]-4,6-dimethylbenzenesulfonamide], for which the IC50 was not above 0.1 µM.

`Cc1cc(C)c(S(=O)(=O)N[C@@H](C)Cn2cc(C)c3cccc(F)c32)c(N)c1` [2-Amino-N—[(S)-2-(7-fluoro-3-methylindol-1-yl)-1-methylethyl]-4,6-dimethylbenzenesulfonamide] came in with an IC50 not above 0.1 µM.

For `Cc1cc(C)c(S(=O)(=O)N(C)[C@@H](C)Cn2cc(C#N)c3cccc(F)c32)c(N)c1` [2-Amino-N—[(S)-2-(3-cyano-7-fluoroindol-1-yl)-1-methylethyl]-4,6,N-trimethylbenzenesulfonamide], the IC50 was not above 0.1 µM.

Take `CCC(Cn1cc(C)c2ccccc21)NS(=O)(=O)c1c(Cl)cc(Cl)cc1Cl` (centres unmarked) [2,4,6-Trichloro-N-[1-(3-methylindol-1-ylmethyl)propyl]benzenesulfonamide]: the IC50 was not above 0.1 µM.

Turning to `CC[C@@H](Cn1cc(C)c2ccccc21)NS(=O)(=O)c1c(N)cc(Cl)cc1Cl` [2-Amino-4,6-dichloro-N—[(S)-1-(3-methylindol-1-ylmethyl)propyl]benzenesulfonamide], the IC50 was not above 0.1 µM.

With `Cc1cn(CC(NS(=O)(=O)c2c(N)cc(Cl)cc2Cl)C(C)C)c2ccccc12` (centres unmarked) [2-Amino-4,6-dichloro-N-[2-methyl-1-(3-methylindol-1-ylmethyl)propyl]benzenesulfonamide], the IC50 is not above 0.1 µM.

`Cc1cc(C)c(S(=O)(=O)N[C@H](Cn2cc(C#N)c3ccccc32)C(C)C)c(N)c1` [2-Amino-N—[(S)-1-(3-cyanoindol-1-ylmethyl)-2-methylpropyl]-4,6-dimethylbenzenesulfonamide] had an IC50 not above 0.1 µM.

Regarding `Cc1cc(C)c(S(=O)(=O)NC(Cn2ccc3ccccc32)C(C)C)c(C)c1` (centres unmarked) [N-(1-Indol-1-ylmethyl-2-methylpropyl)-2,4,6-trimethylbenzenesulfonamide], the IC50 was not above 0.1 µM.

As for `Cc1cc(C)c(S(=O)(=O)N[C@@H](C)Cn2cc(CC#N)c3cccc(F)c32)c(N)c1` [2-Amino-N—[(S)-2-(3-cyanomethyl-7-fluoroindol-1-yl)-1-methylethyl]-4,6-dimethylbenzenesulfonamide], the IC50 is not above 0.1 µM.

`CC[C@@H](Cn1cc(C#N)c2cc(F)ccc21)NS(=O)(=O)c1c(C)cc(C)cc1C` [N—[(S)-1-(3-Cyano-5-fluoroindol-1-ylmethyl)propyl]-2,4,6-trimethylbenzenesulfonamide] returned an IC50 not above 0.1 µM.

On to `CC[C@@H](Cn1cc(C#N)c2ccccc21)NS(=O)(=O)c1c(N)cc(Cl)cc1Cl` [2-Amino-4,6-dichloro-N—[(S)-1-(3-cyanoindol-1-ylmethyl)propyl]benzenesulfonamide], for which the concentration for half-maximal inhibition (IC50) was not above 0.1 µM.

The compound `CCC(Cn1cc(C)c2ccccc21)NS(=O)(=O)c1c(N)cc(Cl)cc1Cl` (centres unmarked) [2-Amino-4,6-dichloro-N-[1-(3-methylindol-1-ylmethyl)propyl]benzenesulfonamide] yielded an IC50 not above 0.1 µM.

Take `CC[C@@H](Cn1cc(C#N)c2ccccc21)NS(=O)(=O)c1c(C)cc(C)cc1C` [N—[(S)-1-(3-Cyanoindol-1-ylmethyl)propyl]-2,4,6-trimethylbenzenesulfonamide]: the IC50 is not above 0.1 µM.

With `CC[C@@H](Cn1c(C)cc2cc(Cl)ccc21)NS(=O)(=O)c1c(C)cc(C)cc1C` [N—[(S)-1-(5-Chloro-2-methylindol-1-ylmethyl)propyl]-2,4,6-trimethylbenzenesulfonamide], the IC50 was not above 0.1 µM.

In turn, `CC[C@@H](Cn1cc(-c2ccc(C)cc2)c2ccccc21)NS(=O)(=O)c1c(C)cc(C)cc1C` [2,4,6-Trimethyl-N—[(S)-1-(3-p-tolylindol-1-ylmethyl)propyl]benzenesulfonamide] displayed an IC50 not above 0.1 µM.

Compound `CC[C@@H](Cn1cc(-c2cccnc2)c2ccccc21)NS(=O)(=O)c1c(C)cc(C)cc1C` [2,4,6-Trimethyl-N—[(S)-1-(3-pyridin-3-ylindol-1-ylmethyl)propyl]benzenesulfonamide] returned a concentration for half-maximal inhibition (IC50) not above 0.1 µM.

A word on the IC50: it is the point on the concentration scale where inhibition reaches its midpoint.
